Paper PMC3799725, “Detection of Active Matriptase Using a Biotinylated Chloromethyl Ketone Peptide” (PLoS ONE, 2013)
Where no end group is shown, it is not given here. The star is where a group is joined. Biotin = O=C1N[C@H]2[C@H](CS[C@H]2CCCCC(=O)*)N1

Legend:
[1] = tested on: murine matriptase (primary keratinocytes); conditions: representative of 2 independent experiments; for labeling of matriptase in matriptase-deficient (KO) murine keratinocytes: lysates or pull downs (figure 6 lanes 4-6 and 10-12)
matriptase-HAI-1 complex = assay: Reaction with / effect on matriptase-HAI-1 complex in Caco-2 cells (pH 6.0-induced)
matriptase SPD = assay: Chromogenic assay: inhibition of matriptase SPD cleavage of S2288; conditions: representative of 3 independent experiments

| Molecule | labeling of matriptase in matriptase-deficient (KO) murine keratinocytes [1] | labeling of matriptase on WT murine keratinocytes by control peptide ([1]; 50 µM control peptide, WT keratinocytes (figure 6 lane 3)) | labeling of matriptase after pH 6.0 pre-treatment (matriptase-HAI-1 complex formed) (matriptase-HAI-1 complex; 50 µM, 30 min at 37°C at pH 7.4 after 30 min pre-treatment at pH 6.0 (figure 4 lane 9)) | labeling of matriptase-HAI-1 complex (matriptase-HAI-1 complex; Caco-2, 50 µM, 30 min at 37°C, conclusion from pH 6.0 pre-treatment) | dissociation of matriptase-HAI-1 complex (matriptase-HAI-1 complex; under the conditions used in the study) | inhibition of peptidolytic activity of matriptase SPD after pre-incubation of inhibitor (matriptase SPD; 5 nM inhibitor pre-incubated 60 min at 37°C, 0.2 nM SPD, Hepes pH 7.4, S2288 300 µM, 405 nm) | inhibition of peptidolytic activity of matriptase SPD (matriptase SPD; 5 nM inhibitor, no pre-incubation (0 min), 0.2 nM SPD, Hepes pH 7.4, 10 min at 37°C, S2288 300 µM, 405 nm) | inhibition of matriptase SPD after pre-incubation of inhibitor (matriptase SPD; 50 µM inhibitor pre-incubated in aqueous solution 180 min at 37°C, 0.2 nM SPD, Hepes pH 7.4, 10 min at 37°C, S2288 300 µM, 405 nm) | inhibition of matriptase SPD cleavage of chromogenic substrate at pH 6.0 (matriptase SPD; 50 µM inhibitor, 20 mM citric acid pH 6.0, 140 mM NaCl, 0.1% BSA, 10 min at 37°C, S2288 300 µM) |
| --- | --- | --- | --- | --- | --- | --- | --- | --- | --- |
| O=C(CCCC[C@@H]1SC[C@@H]2NC(=O)N[C@@H]21)NCCSSCCC(=O)ON1C(=O)CC(S(=O)(=O)[O-])C1=O.[Na+] (some centres unmarked) [S-NHS-SS-biotin] | No matriptase could be detected in lysates or pull downs |  |  |  |  |  |  |  |  |
| Biotin-RQRR [biotin-RQRR] | No matriptase could be detected in lysates or pull downs | No matriptase was detected |  |  |  |  |  |  |  |
| biotin-Arg-Gln-Arg-Arg-chloromethyl ketone | No matriptase could be detected in lysates or pull downs |  | but not when the cells had been exposed to pH 6.0 for 30 min | matriptase-HAI-1 complex is not labeled | not able to dissociate the matriptase-HAI-1 complex | fully inhibiting the peptidolytic activity | fully inhibiting the peptidolytic activity | still sufficient to efficiently inhibit the activity | no cleavage of the substrate was observed |
